# Assays:
# Assay type in all cases: functional
# MOLT-4 [1] = assay: Growth inhibition of human MOLT4 cells incubated for 48 hrs by sulforhodamine B assay; conditions: MOLT-4, 48 h
# MDA-MB-231 [2] = assay: Growth inhibition of human MDA-MB-231 cells incubated for 48 hrs by sulforhodamine B assay; conditions: MDA-MB-231, 48 h
# COLO 205 = assay: Growth inhibition of human COLO205 cells incubated for 48 hrs by sulforhodamine B assay; conditions: COLO 205, 48 h
# SK-OV-3 = assay: Growth inhibition of human SKOV3 cells incubated for 48 hrs by sulforhodamine B assay; conditions: SK-OV-3, 48 h
# NCI-H322M = assay: Growth inhibition of human NCI-H322M cells assessed as cell growth at 100 uM incubated for 48 hrs by sulforhodamine B assay relative to control; conditions: read-out: Activity
# OVCAR-4 = assay: Growth inhibition of human OVCAR4 cells assessed as cell growth at 0.01 uM incubated for 48 hrs by sulforhodamine B assay relative to control; conditions: OVCAR-4, 48 h, read-out: Activity
# HOP-92 [3] = assay: Growth inhibition of human HOP92 cells incubated for 48 hrs by sulforhodamine B assay; conditions: HOP-92, 48 h
# HCC 2998 = assay: Growth inhibition of human HCC2998 cells assessed as cell growth at 0.01 uM incubated for 48 hrs by sulforhodamine B assay relative to control; conditions: HCC 2998, 48 h, read-out: Activity
# ACHN = assay: Growth inhibition of human ACHN cells assessed as cell growth at 0.1 uM incubated for 48 hrs by sulforhodamine B assay relative to control; conditions: read-out: Activity
# NCI/ADR-RES = assay: Growth inhibition of human NCI-ADR-RES cells incubated for 48 hrs by sulforhodamine B assay
# MDA-MB-468 [4] = assay: Growth inhibition of human MDA-MB-468 cells assessed as cell growth at 0.01 uM incubated for 48 hrs by sulforhodamine B assay relative to control; conditions: MDA-MB-468, 48 h, read-out: Activity
# UACC-62 = assay: Growth inhibition of human UACC62 cells assessed as cell growth at 1 uM incubated for 48 hrs by sulforhodamine B assay relative to control; conditions: UACC-62, 48 h, read-out: Activity
# HT-29 = assay: Growth inhibition of human HT-29 cells incubated for 48 hrs by sulforhodamine B assay; conditions: HT-29, 48 h
# SK-MEL-28 [5] = assay: Growth inhibition of human SK-MEL-28 cells assessed as cell growth at 100 uM incubated for 48 hrs by sulforhodamine B assay relative to control; conditions: SK-MEL-28, 48 h, read-out: Activity
# DU-145 = assay: Growth inhibition of human DU145 cells assessed as cell growth at 0.01 uM incubated for 48 hrs by sulforhodamine B assay relative to control; conditions: DU-145, 48 h, read-out: Activity
# MOLT-4 [6] = assay: Growth inhibition of human MOLT4 cells assessed as cell growth at 0.1 uM incubated for 48 hrs by sulforhodamine B assay relative to control; conditions: MOLT-4, 48 h, read-out: Activity
# UACC-257 [7] = assay: Growth inhibition of human UACC257 cells assessed as cell growth at 0.1 uM incubated for 48 hrs by sulforhodamine B assay relative to control; conditions: UACC-257, 48 h, read-out: Activity
# UACC-257 [8] = assay: Growth inhibition of human UACC257 cells assessed as cell growth at 0.01 uM incubated for 48 hrs by sulforhodamine B assay relative to control; conditions: UACC-257, 48 h, read-out: Activity
# PC-3 = assay: Growth inhibition of human PC3 cells assessed as cell growth at 1 uM incubated for 48 hrs by sulforhodamine B assay relative to control; conditions: PC-3, 48 h, read-out: Activity
# MOLT-4 [9] = assay: Growth inhibition of human MOLT4 cells assessed as cell growth at 1 uM incubated for 48 hrs by sulforhodamine B assay relative to control; conditions: MOLT-4, 48 h, read-out: Activity
# MDA-MB-231 [10] = assay: Growth inhibition of human MDA-MB-231 cells assessed as cell growth at 100 uM incubated for 48 hrs by sulforhodamine B assay relative to control; conditions: MDA-MB-231, 48 h, read-out: Activity
# SNB-75 = assay: Growth inhibition of human SNB75 cells assessed as cell growth at 0.01 uM incubated for 48 hrs by sulforhodamine B assay relative to control; conditions: SNB-75, 48 h, read-out: Activity
# MDA-MB-468 [11] = assay: Growth inhibition of human MDA-MB-468 cells incubated for 48 hrs by sulforhodamine B assay; conditions: MDA-MB-468, 48 h
# KM12 = assay: Growth inhibition of human KM12 cells assessed as cell growth at 100 uM incubated for 48 hrs by sulforhodamine B assay relative to control; conditions: KM12, 48 h, read-out: Activity
# NCI-H226 = assay: Growth inhibition of human NCI-H226 cells assessed as cell growth at 0.01 uM incubated for 48 hrs by sulforhodamine B assay relative to control; conditions: NCI-H226, 48 h, read-out: Activity
# HOP-92 [12] = assay: Growth inhibition of human HOP92 cells assessed as cell growth at 0.01 uM incubated for 48 hrs by sulforhodamine B assay relative to control; conditions: HOP-92, 48 h, read-out: Activity
# SK-MEL-28 [13] = assay: Growth inhibition of human SK-MEL-28 cells assessed as cell growth at 0.1 uM incubated for 48 hrs by sulforhodamine B assay relative to control; conditions: SK-MEL-28, 48 h, read-out: Activity
# SF-268 = assay: Growth inhibition of human SF268 cells assessed as cell growth at 1 uM incubated for 48 hrs by sulforhodamine B assay relative to control; conditions: SF-268, 48 h, read-out: Activity
# 786-0 = assay: Growth inhibition of human 786-0 cells assessed as cell growth at 0.01 uM incubated for 48 hrs by sulforhodamine B assay relative to control; conditions: 786-0, 48 h, read-out: Activity
# [14] = read-out: LC50 (the source's name)
# [15] = read-out: pLC50 (the source's name) (converted)
smiles,measurement,setting,value
c1ccc2[nH]c(-c3ccc(-c4nccc5c4[nH]c4ccccc45)cc3)nc2c1,GI50,MOLT-4 [1]; read-out: GI50,2.32 µM
same,CC50,MOLT-4 [1]; [14],7.51 µM
same,TGI,MOLT-4 [1]; read-out: TGI,6.11 µM
same,GI50,MOLT-4 [1]; read-out: pGI50 (converted),2.29 µM
same,CC50,MOLT-4 [1]; [15],75.9 µM
same,TGI,MOLT-4 [1]; read-out: pTGI (converted),6.17 µM
same,GI50,MDA-MB-231 [2]; read-out: GI50,2.39 µM
same,TGI,MDA-MB-231 [2]; read-out: TGI,5.83 µM
same,GI50,MDA-MB-231 [2]; read-out: pGI50 (converted),2.4 µM
same,CC50,MDA-MB-231 [2]; [15],> 100 µM
same,TGI,MDA-MB-231 [2]; read-out: pTGI (converted),5.89 µM
same,GI50,COLO 205; read-out: GI50,2.32 µM
same,CC50,COLO 205; [14],4.35 µM
same,TGI,COLO 205; read-out: TGI,6.22 µM
same,GI50,COLO 205; read-out: pGI50 (converted),2.34 µM
same,CC50,COLO 205; [15],43.7 µM
same,TGI,COLO 205; read-out: pTGI (converted),6.17 µM
same,CC50,SK-OV-3; [14],4.66 µM
same,GI50,SK-OV-3; read-out: pGI50 (converted),4.37 µM
same,CC50,SK-OV-3; [15],46.8 µM
same,TGI,SK-OV-3; read-out: pTGI (converted),15.8 µM
same,growth at 100 µM,NCI-H322M,75%
same,growth at 0.01 µM,OVCAR-4,90%
same,GI50,HOP-92 [3]; read-out: GI50,2.06 µM
same,CC50,HOP-92 [3]; [14],2.98 µM
same,TGI,HOP-92 [3]; read-out: TGI,5.79 µM
same,GI50,HOP-92 [3]; read-out: pGI50 (converted),2.04 µM
same,CC50,HOP-92 [3]; [15],29.5 µM
same,TGI,HOP-92 [3]; read-out: pTGI (converted),5.75 µM
same,growth at 0.01 µM,HCC 2998,96%
same,growth at 0.1 µM,ACHN,98%
same,GI50,NCI/ADR-RES; read-out: GI50,3.5 µM
same,CC50,NCI/ADR-RES; [14],> 1 µM
same,GI50,NCI/ADR-RES; read-out: pGI50 (converted),3.47 µM
same,CC50,NCI/ADR-RES; read-out: pLC50 (converted),> 100 µM
same,TGI,NCI/ADR-RES; read-out: pTGI (converted),15.1 µM
same,growth at 0.01 µM,MDA-MB-468 [4],90%
same,growth at 1 µM,UACC-62,80%
same,GI50,HT-29; read-out: GI50,2.19 µM
same,CC50,HT-29; [14],8.97 µM
same,TGI,HT-29; read-out: TGI,4.43 µM
same,GI50,HT-29; read-out: pGI50 (converted),2.19 µM
same,CC50,HT-29; [15],8.91 µM
same,TGI,HT-29; read-out: pTGI (converted),4.47 µM
same,growth at 100 µM,SK-MEL-28 [5],69%
same,growth at 0.01 µM,DU-145,98%
same,growth at 0.1 µM,MOLT-4 [6],98%
same,growth at 0.1 µM,UACC-257 [7],103%
same,growth at 0.01 µM,UACC-257 [8],93%
same,growth at 1 µM,PC-3,95%
same,growth at 1 µM,MOLT-4 [9],93%
same,growth at 100 µM,MDA-MB-231 [10],54%
same,growth at 0.01 µM,SNB-75,81%
same,GI50,MDA-MB-468 [11]; read-out: GI50,2.52 µM
same,CC50,MDA-MB-468 [11]; [14],4.97 µM
same,TGI,MDA-MB-468 [11]; read-out: TGI,6.62 µM
same,GI50,MDA-MB-468 [11]; read-out: pGI50 (converted),2.51 µM
same,CC50,MDA-MB-468 [11]; [15],50.1 µM
same,TGI,MDA-MB-468 [11]; read-out: pTGI (converted),6.61 µM
same,growth at 100 µM,KM12,76%
same,growth at 0.01 µM,NCI-H226,93%
same,growth at 0.01 µM,HOP-92 [12],85%
same,growth at 0.1 µM,SK-MEL-28 [13],98%
same,growth at 1 µM,SF-268,93%
same,growth at 0.01 µM,786-0,89%
